Measurements from PMC3632285 (Journal of controlled release : official journal of the …, 2013).

Tests used:
[1] = test system: human airway epithelial cells (Calu-3); test: MTT cytotoxicity study in Calu-3 cells; assay type: cell-based; settings: 0.1% w/v, positive control, cell line not specified in the sentence (Fig. 6A)
[2] = In-vitro drug release in dialysis cassettes, PBS pH 7.4, 37°C; assay type: physicochemical; settings: plain drug control in dialysis cassette, data not shown
[3] = test system: monocrotaline (MCT)-induced PAH rats; test: Hemodynamic studies in monocrotaline; assay type: in vivo, Sprague-Dawley rats; settings: 3 mg/kg
[4] = cited from earlier work
[5] = various storage conditions; cited from earlier work
PAH patients = settings: dose of 30 or 40 mg; cited from earlier work
in vivo = settings: male, Sprague-Dawley, rat, 10 mg/kg

SMILES	Cell viability [1]	Drug released in the media [2]	Decrease in MPAP (maximal) ([3]; intratracheal)	Reduction in MSAP ([3]; intratracheal)	Decrease in MPAP (maximal) ([3]; intravenous)	Duration of pulmonary vasodilatory effects (15% reduction in MPAP as baseline) ([3]; intravenous)	Reduction in MSAP ([3]; intravenous)	Duration of pulmonary vasodilatory effects (15% reduction in MPAP as baseline) ([3]; pulmonary (intratracheal))	pKa [4]	Time over which the drug is stable [5]	Effect on MPAP in PAH patients (PAH patients)	bioavailability (in vivo; Bioavailability (relative))	AUC(0-t) (in vivo; inhaled or intranasal)	Cmax (in vivo; inhaled or intranasal)	AUC(0-t) (in vivo; iv)	Cmax (in vivo; iv)
CCCCCCCCCCCCOS(=O)(=O)[O-].[Na+] [SDS, sodium dodecyl sulfate]	15%	–	–	–	–	–	–	–	–	–	–	–	–	–	–	–
O=S(=O)(c1cccc2cnccc12)N1CCCNCC1 [fasudil]	–	100%	38.3±7.3%	38.1±10.8%	45.6±17.0%	50.0 ± 10.4 min	45.6±8.4%	60.0 ± 15.3 min	9.727	~ 24 weeks	effective in reducing MPAP	~40%	2.33 ng·h/mL	66.2 ± 13.6 ng/mL	5.71 ng·h/mL	298 ± 10 ng/mL
